{"source": "patent US20090246281A1", "about": "“Soft steroid compositions for use in dry powder inhalers” (Norton Healthcare Ltd., priority 2003, published 2009)", "test": "Stability of EDA dry mix versus EDA solutions in solvents", "format": "physicochemical", "source_text": "In comparison, solutions prepared by dissolving 2 wt % EDA in a) pure methanol, b) pure ethanol, c) methanol+10 wt % water (pH 4.5) and d) ethanol+10% water (pH 4.5), were stable for 2 days, 2 days, 4 days and 4 days, respectively."}
{"smiles": "CCOC(=O)[C@@]1(OC(=O)C(Cl)Cl)CCC2C3CCC4=CC(=O)C=CC4(C)C3C(O)CC21C", "note": "(stereo partly drawn) [EDA, ethyl 17α-dichloroacetoxy-11β-hydroxyandrosta-1,4-dien-3-one-17β-carboxylate]", "values": [{"measurement": "Time stable in solution", "setting": "2 wt % EDA in ethanol+10% water (pH 4.5)", "value": 4, "unit": "days"}, {"measurement": "Time stable in solution", "setting": "2 wt % EDA in methanol+10 wt % water (pH 4.5)", "value": 4, "unit": "days"}, {"measurement": "Time stable in solution", "setting": "2 wt % EDA in pure ethanol", "value": 2, "unit": "days"}, {"measurement": "Time stable in solution", "setting": "2 wt % EDA in pure methanol", "value": 2, "unit": "days"}]}
